Data from paper PMC12518996 (Frontiers in Pharmacology, 2025).

Tests used:
[1] = biological target: CYP3A4 (Homo sapiens, UniProt P08684); conditions: human hepatocytes; probe midazolam; 0.1-100 μM
[2] = biological target: T1, CYP1A2 (Homo sapiens, UniProt P05177); assay: biochemical
T1 sequence (P05177 1-516): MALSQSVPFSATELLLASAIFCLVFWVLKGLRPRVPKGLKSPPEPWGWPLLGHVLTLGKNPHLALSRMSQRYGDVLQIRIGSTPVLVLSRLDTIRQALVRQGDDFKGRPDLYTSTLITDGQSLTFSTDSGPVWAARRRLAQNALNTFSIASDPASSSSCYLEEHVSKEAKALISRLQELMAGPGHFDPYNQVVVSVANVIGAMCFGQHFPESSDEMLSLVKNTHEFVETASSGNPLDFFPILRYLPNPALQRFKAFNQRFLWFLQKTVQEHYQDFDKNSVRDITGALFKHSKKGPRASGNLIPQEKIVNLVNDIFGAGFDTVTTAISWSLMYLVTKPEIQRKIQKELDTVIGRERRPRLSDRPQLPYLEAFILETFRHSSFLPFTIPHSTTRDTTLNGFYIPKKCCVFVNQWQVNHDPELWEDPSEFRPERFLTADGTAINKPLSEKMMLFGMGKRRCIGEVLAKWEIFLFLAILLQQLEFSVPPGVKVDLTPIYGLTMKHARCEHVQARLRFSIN

[3] = biological target: CYP2E1 (Homo sapiens, UniProt P05181); assay: biochemical
[4] = biological target: T2, CYP2A6 (Mus musculus, UniProt P20852); assay: biochemical
T2 sequence (P20852 1-494): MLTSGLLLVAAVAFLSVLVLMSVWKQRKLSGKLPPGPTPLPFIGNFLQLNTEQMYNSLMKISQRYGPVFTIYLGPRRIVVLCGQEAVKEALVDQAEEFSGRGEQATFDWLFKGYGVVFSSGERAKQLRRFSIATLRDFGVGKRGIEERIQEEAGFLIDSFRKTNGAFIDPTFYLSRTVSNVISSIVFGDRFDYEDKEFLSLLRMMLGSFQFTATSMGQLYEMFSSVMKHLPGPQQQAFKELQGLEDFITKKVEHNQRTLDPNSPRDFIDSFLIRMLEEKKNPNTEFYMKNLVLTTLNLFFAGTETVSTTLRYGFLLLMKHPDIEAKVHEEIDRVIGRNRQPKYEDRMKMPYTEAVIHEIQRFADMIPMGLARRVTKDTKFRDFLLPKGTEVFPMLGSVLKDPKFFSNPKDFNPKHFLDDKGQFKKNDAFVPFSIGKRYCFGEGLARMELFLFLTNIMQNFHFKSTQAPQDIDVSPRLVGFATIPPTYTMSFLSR

[5] = biological target: CYP2E1 (Mus musculus, UniProt Q05421); assay: biochemical
[6] = biological target: T3, CYP2A6 (Homo sapiens, UniProt P11509); assay: Inhibition of CYP2A6 in human hepatocytes (coumarin probe)
T3 sequence (P11509 1-494): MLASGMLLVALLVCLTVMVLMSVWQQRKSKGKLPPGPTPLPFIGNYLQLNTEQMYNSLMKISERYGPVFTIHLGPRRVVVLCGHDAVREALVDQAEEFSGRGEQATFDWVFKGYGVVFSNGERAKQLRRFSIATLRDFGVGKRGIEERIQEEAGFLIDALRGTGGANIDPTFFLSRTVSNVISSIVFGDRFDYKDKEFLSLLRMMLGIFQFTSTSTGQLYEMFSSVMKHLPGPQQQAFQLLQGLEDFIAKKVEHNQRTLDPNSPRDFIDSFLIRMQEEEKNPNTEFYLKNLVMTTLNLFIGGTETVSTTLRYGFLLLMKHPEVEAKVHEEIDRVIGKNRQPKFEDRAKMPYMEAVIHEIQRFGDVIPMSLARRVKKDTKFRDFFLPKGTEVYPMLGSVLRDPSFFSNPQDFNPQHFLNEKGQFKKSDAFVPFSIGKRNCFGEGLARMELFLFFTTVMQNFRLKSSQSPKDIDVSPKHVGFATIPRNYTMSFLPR

[7] = system: CYP3A4; assay: Inhibition of CYP3A4 in CD1 mouse hepatocytes (midazolam probe); conditions: both, hepatocytes

CYP2E1 (Mus musculus, UniProt Q05421), sequence (Q05421 whole entry): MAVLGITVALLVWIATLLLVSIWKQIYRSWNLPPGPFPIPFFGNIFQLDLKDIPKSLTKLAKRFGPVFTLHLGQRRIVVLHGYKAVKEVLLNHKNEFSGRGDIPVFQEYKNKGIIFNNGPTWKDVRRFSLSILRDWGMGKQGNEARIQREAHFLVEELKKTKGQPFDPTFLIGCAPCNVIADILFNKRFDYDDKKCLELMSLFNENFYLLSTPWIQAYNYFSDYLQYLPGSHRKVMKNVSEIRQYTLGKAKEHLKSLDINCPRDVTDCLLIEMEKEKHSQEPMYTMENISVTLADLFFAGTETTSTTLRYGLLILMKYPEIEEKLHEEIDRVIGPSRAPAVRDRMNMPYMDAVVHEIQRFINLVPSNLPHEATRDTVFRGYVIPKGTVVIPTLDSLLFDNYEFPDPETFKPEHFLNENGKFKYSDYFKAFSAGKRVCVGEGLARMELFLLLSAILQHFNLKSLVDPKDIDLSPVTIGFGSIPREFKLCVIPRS
CYP3A4, sequence (P08684 whole entry): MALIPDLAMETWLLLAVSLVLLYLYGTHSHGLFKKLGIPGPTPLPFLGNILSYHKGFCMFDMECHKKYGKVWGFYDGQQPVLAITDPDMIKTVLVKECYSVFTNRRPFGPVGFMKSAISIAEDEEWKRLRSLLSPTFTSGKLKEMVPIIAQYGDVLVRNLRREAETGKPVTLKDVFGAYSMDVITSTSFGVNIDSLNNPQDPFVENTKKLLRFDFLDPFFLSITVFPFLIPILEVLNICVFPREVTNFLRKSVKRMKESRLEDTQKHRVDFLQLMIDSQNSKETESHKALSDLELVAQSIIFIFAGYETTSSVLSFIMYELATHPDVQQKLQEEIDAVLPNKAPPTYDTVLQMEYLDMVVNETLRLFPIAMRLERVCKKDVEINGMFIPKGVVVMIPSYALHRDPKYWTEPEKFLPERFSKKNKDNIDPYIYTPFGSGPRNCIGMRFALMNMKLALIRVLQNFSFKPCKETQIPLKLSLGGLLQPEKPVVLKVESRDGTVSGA
CYP2E1 (Homo sapiens, UniProt P05181), sequence (P05181 whole entry): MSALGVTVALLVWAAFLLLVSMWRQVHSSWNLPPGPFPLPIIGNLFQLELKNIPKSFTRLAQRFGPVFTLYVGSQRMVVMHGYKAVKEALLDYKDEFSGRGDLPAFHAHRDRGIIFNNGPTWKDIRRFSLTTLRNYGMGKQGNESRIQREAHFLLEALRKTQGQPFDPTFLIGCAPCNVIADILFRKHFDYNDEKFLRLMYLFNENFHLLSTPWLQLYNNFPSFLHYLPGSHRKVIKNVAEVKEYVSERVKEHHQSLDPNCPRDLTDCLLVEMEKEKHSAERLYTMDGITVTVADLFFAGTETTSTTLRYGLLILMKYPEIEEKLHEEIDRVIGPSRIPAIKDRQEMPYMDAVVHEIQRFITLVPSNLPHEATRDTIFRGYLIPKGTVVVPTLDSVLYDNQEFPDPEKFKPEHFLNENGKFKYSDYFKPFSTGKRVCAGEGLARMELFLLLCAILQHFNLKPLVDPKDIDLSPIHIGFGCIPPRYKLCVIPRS

Clc1cccc(N2CCNCC2)c1 [mCPP, m-chlorophenylpiperazine]
IC50 value (µM), CYP3A4 [1]: inactive | IC50 [2]: > 100 µM | IC50 [3]: 6.46 µM | IC50 [4]: > 100 µM | IC50 [5]: 1.88 µM | IC50 [6]: 29.8 µM | IC50 [7]: […]
